Measurements from PubChem BioAssay (NCI).
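Step 1: Grow cells in 96-well plates. Step 2: Expose to compound for 48 hours at 5 concentrations. Step 3: Interpolate endpoints linearly; if unreached, use highest concentration. Definition used: TGI = concentration required for complete inhibition of growth.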

What was measured:
Assay in all cases: NCI-60 cell line screen, 48 h
786-0 renal = system: 786-0 renal
A498 renal = system: A498 renal
A549 NSCLC = system: A549 NSCLC
ACHN renal = system: ACHN renal
BT-549 breast = system: BT-549 breast
CAKI-1 renal = system: CAKI-1 renal
CCRF-CEM leukemia = system: CCRF-CEM leukemia
COLO 205 colon = system: COLO 205 colon
DLD-1 colon = system: DLD-1 colon
DMS 114 small cell lung = system: DMS 114 small cell lung
DMS 273 small cell lung = system: DMS 273 small cell lung
DU-145 prostate = system: DU-145 prostate
EKVX NSCLC = system: EKVX NSCLC
HCC-2998 colon = system: HCC-2998 colon
HCT-116 colon = system: HCT-116 colon
HCT-15 colon = system: HCT-15 colon
HL-60(TB) leukemia = system: HL-60(TB) leukemia
HOP-18 NSCLC = system: HOP-18 NSCLC
HOP-62 NSCLC = system: HOP-62 NSCLC
HOP-92 NSCLC = system: HOP-92 NSCLC
HS 578T breast = system: HS 578T breast
HT29 colon = system: HT29 colon
IGROV1 ovarian = system: IGROV1 ovarian
K-562 leukemia = system: K-562 leukemia
KM12 colon = system: KM12 colon
KM20L2 colon = system: KM20L2 colon
LOX IMVI melanoma = system: LOX IMVI melanoma
M14 melanoma = system: M14 melanoma
M19-MEL melanoma = system: M19-MEL melanoma
MALME-3M melanoma = system: MALME-3M melanoma
MCF7 breast = system: MCF7 breast
MDA-MB-231 breast = system: MDA-MB-231 breast
MDA-MB-435 = system: MDA-MB-435
MDA-N = system: MDA-N
MOLT-4 leukemia = system: MOLT-4 leukemia
NCI-H226 lung = system: NCI-H226 lung
NCI-H23 lung = system: NCI-H23 lung
NCI-H460 lung = system: NCI-H460 lung
NCI-H522 lung = system: NCI-H522 lung
NCI/ADR-RES ovarian = system: NCI/ADR-RES ovarian
OVCAR-3 ovarian = system: OVCAR-3 ovarian
OVCAR-4 ovarian = system: OVCAR-4 ovarian
OVCAR-5 ovarian = system: OVCAR-5 ovarian
OVCAR-8 ovarian = system: OVCAR-8 ovarian
PC-3 prostate = system: PC-3 prostate
RPMI-8226 leukemia = system: RPMI-8226 leukemia
RXF 393 renal = system: RXF 393 renal
SF-268 CNS = system: SF-268 CNS
SF-295 CNS = system: SF-295 CNS
SF-539 CNS = system: SF-539 CNS
SK-MEL-2 melanoma = system: SK-MEL-2 melanoma
SK-MEL-28 melanoma = system: SK-MEL-28 melanoma
SK-MEL-5 melanoma = system: SK-MEL-5 melanoma
SK-OV-3 ovarian = system: SK-OV-3 ovarian
SN12C renal = system: SN12C renal
SNB-19 CNS = system: SNB-19 CNS
SNB-75 CNS = system: SNB-75 CNS
SNB-78 CNS = system: SNB-78 CNS
SR leukemia = system: SR leukemia
SW-620 colon = system: SW-620 colon
T-47D breast = system: T-47D breast
TK-10 renal = system: TK-10 renal
U251 CNS = system: U251 CNS
UACC-257 melanoma = system: UACC-257 melanoma
UACC-62 melanoma = system: UACC-62 melanoma
UO-31 renal = system: UO-31 renal
XF 498 CNS = system: XF 498 CNS
LXFL 529 NSCLC = system: LXFL 529 NSCLC

Cc1cc(N(CC(C)Br)CC(C)Br)ccc1N=Nc1ccccc1C(=O)O (centres undefined) gave a TGI (786-0 renal) of 16.4 µM, a TGI (A498 renal) of 3.91 µM and a TGI (A549 NSCLC) of 19.9 µM. It also gave a TGI (ACHN renal) of 13.5 µM, a TGI (BT-549 breast) of 26.5 µM and a TGI (CAKI-1 renal) of 6.9 µM. For the same compound, the TGI (CCRF-CEM leukemia) was over 94.1 µM, the TGI (COLO 205 colon) was 19.7 µM and the TGI (DLD-1 colon) was 16.6 µM. The TGI (DMS 114 small cell lung) was 11.1 µM, the TGI (DMS 273 small cell lung) was 20.5 µM and the TGI (DU-145 prostate) was 20 µM. For the same compound, the TGI (EKVX NSCLC) was 21.8 µM, the TGI (HCC-2998 colon) was 6.19 µM and the TGI (HCT-116 colon) was 20.3 µM. For the same compound, the TGI (HCT-15 colon) was 29 µM, the TGI (HL-60(TB) leukemia) was 36.6 µM and the TGI (HOP-18 NSCLC) was 8.29 µM. The TGI (HOP-62 NSCLC) was 22.8 µM, the TGI (HOP-92 NSCLC) was 10 µM and the TGI (HS 578T breast) was 49.2 µM. For the same compound, the TGI (HT29 colon) was 14.2 µM, the TGI (IGROV1 ovarian) was 24.2 µM and the TGI (K-562 leukemia) was 4.8 µM. The TGI (KM12 colon) was 27.4 µM, the TGI (KM20L2 colon) was 24.2 µM and the TGI (LOX IMVI melanoma) was 31.9 µM. For the same compound, the TGI (M14 melanoma) was 20.1 µM, the TGI (M19-MEL melanoma) was 29 µM and the TGI (MALME-3M melanoma) was 18.6 µM. It also gave a TGI (MCF7 breast) of 7.67 µM, a TGI (MDA-MB-231 breast) of 32.8 µM and a TGI (MDA-MB-435) of 33.5 µM. For the same compound, the TGI (MDA-N) was 20.5 µM, the TGI (MOLT-4 leukemia) was over 100 µM and the TGI (NCI-H226 lung) was 13.3 µM. It also gave a TGI (NCI-H23 lung) of 18.1 µM, a TGI (NCI-H460 lung) of 11.7 µM and a TGI (NCI-H522 lung) of 9.02 µM. It also gave a TGI (NCI/ADR-RES ovarian) of over 100 µM, a TGI (OVCAR-3 ovarian) of 47.2 µM and a TGI (OVCAR-4 ovarian) of 5.53 µM. It also gave a TGI (OVCAR-5 ovarian) of 10.2 µM, a TGI (OVCAR-8 ovarian) of over 52.4 µM and a TGI (PC-3 prostate) of 30 µM. The TGI (RPMI-8226 leukemia) was 7.24 µM, the TGI (RXF 393 renal) was 4.3 µM and the TGI (SF-268 CNS) was over 38.8 µM. It also gave a TGI (SF-295 CNS) of 6.33 µM, a TGI (SF-539 CNS) of 4.39 µM and a TGI (SK-MEL-2 melanoma) of 10.2 µM. For the same compound, the TGI (SK-MEL-28 melanoma) was 5.43 µM, the TGI (SK-MEL-5 melanoma) was 14.6 µM and the TGI (SK-OV-3 ovarian) was 39.7 µM. It also gave a TGI (SN12C renal) of 20 µM, a TGI (SNB-19 CNS) of 23.5 µM and a TGI (SNB-75 CNS) of 11.2 µM. It also gave a TGI (SNB-78 CNS) of 40.2 µM, a TGI (SR leukemia) of over 40.7 µM and a TGI (SW-620 colon) of over 84.1 µM. For the same compound, the TGI (T-47D breast) was 5 µM, the TGI (TK-10 renal) was 24.4 µM and the TGI (U251 CNS) was 22 µM. For the same compound, the TGI (UACC-257 melanoma) was 19 µM, the TGI (UACC-62 melanoma) was 3.4 µM and the TGI (UO-31 renal) was 37.5 µM. The TGI (XF 498 CNS) was 4.62 µM.

In the case of C=C1C(=O)OC2/C=C(\C(=O)O)CC/C=C(\C)CC(OC(=O)/C=C(\C)CC)C12 (centres undefined), the TGI (A498 renal) is reported as 32 µM, the TGI (A549 NSCLC) is reported as 31.6 µM and the TGI (ACHN renal) is reported as 46.2 µM. For the same compound, the TGI (CAKI-1 renal) was 54.1 µM, the TGI (CCRF-CEM leukemia) was over 100 µM and the TGI (COLO 205 colon) was 31.3 µM. For the same compound, the TGI (DLD-1 colon) was 43.6 µM, the TGI (DMS 114 small cell lung) was 30.2 µM and the TGI (DMS 273 small cell lung) was 34 µM. For the same compound, the TGI (EKVX NSCLC) was 59.3 µM, the TGI (HCC-2998 colon) was 33.8 µM and the TGI (HCT-116 colon) was 25.6 µM. For the same compound, the TGI (HCT-15 colon) was 28.6 µM, the TGI (HL-60(TB) leukemia) was over 100 µM and the TGI (HOP-18 NSCLC) was 39.9 µM. It also gave a TGI (HOP-62 NSCLC) of 34.5 µM, a TGI (HOP-92 NSCLC) of 36.8 µM and a TGI (HT29 colon) of 30.1 µM. The TGI (IGROV1 ovarian) was 40.9 µM, the TGI (K-562 leukemia) was over 100 µM and the TGI (KM12 colon) was 27.9 µM. The TGI (KM20L2 colon) was 39.5 µM, the TGI (LOX IMVI melanoma) was 29.3 µM and the TGI (LXFL 529 NSCLC) was 31.6 µM. It also gave a TGI (M14 melanoma) of 31.2 µM, a TGI (M19-MEL melanoma) of 29.1 µM and a TGI (MALME-3M melanoma) of 32.7 µM. The TGI (MOLT-4 leukemia) was over 100 µM, the TGI (NCI-H226 lung) was 32.9 µM and the TGI (NCI-H23 lung) was 33.2 µM. It also gave a TGI (NCI-H460 lung) of 30.7 µM, a TGI (NCI-H522 lung) of 32.8 µM and a TGI (OVCAR-3 ovarian) of 30.8 µM. For the same compound, the TGI (OVCAR-4 ovarian) was 45.1 µM, the TGI (OVCAR-5 ovarian) was 26.6 µM and the TGI (OVCAR-8 ovarian) was 33.9 µM. The TGI (RPMI-8226 leukemia) was over 100 µM, the TGI (RXF 393 renal) was 27.5 µM and the TGI (SF-268 CNS) was 30.6 µM. The TGI (SF-295 CNS) was 31.3 µM, the TGI (SF-539 CNS) was 29.9 µM and the TGI (SK-MEL-2 melanoma) was 28.7 µM. It also gave a TGI (SK-MEL-28 melanoma) of 34.2 µM, a TGI (SK-MEL-5 melanoma) of 32.9 µM and a TGI (SK-OV-3 ovarian) of 37.9 µM. For the same compound, the TGI (SN12C renal) was 31 µM, the TGI (SNB-19 CNS) was 33.5 µM and the TGI (SNB-75 CNS) was 47.6 µM. The TGI (SNB-78 CNS) was 61 µM, the TGI (SR leukemia) was over 100 µM and the TGI (SW-620 colon) was 31.3 µM. The TGI (TK-10 renal) was over 100 µM, the TGI (U251 CNS) was 30.7 µM and the TGI (UACC-257 melanoma) was 39.9 µM. For the same compound, the TGI (UACC-62 melanoma) was 28.5 µM, the TGI (UO-31 renal) was 41.9 µM and the TGI (XF 498 CNS) was 32.5 µM.
